According to the supplement of paper PMC11208160:

assay: recombinant barcode read abundance after kanamycin selection (control-corrected) (log10(CPM+1)); higher = more efficient recombination; sequences stand for … in AGTGCAGAGAAAATCGGCCAGTTTTCTCTGCCTGCAGTCCGCATGCCGT…AGATTTATGCAGCGGACTGCCTTTCTCCCAAAGTGATAAACCGGACAGTATCATGGACCGGTTTTCCCGGTAATCCGTATTTGCAAGGTTGGTTTCACT; site = the 11-nt target
Summary of the method: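 For this pooled screen, each oligo contained a promoter, a target, a barcode and the J23119-driven first 104 bases of the bridge RNA. Gibson cloning placed it into a vector supplying the remaining 73 bp and a T7-inducible recombinase, and the pool was co-electroporated into E. coli with a donor plasmid. Recombination efficiency is derived from barcode counts per million at recombinant junctions after averaging and control correction, and is expressed on a log scale as log10(CPM+1), with selection on chloramphenicol/ampicillin/kanamycin plus 0.1 mM IPTG against a chloramphenicol/ampicillin LB agar control.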
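Note: IS621 recombinase and bridge RNA in Escherichia coli cells.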

Sequence | recombinant barcode read abundance (log10)
ACAGGGTCTTGGGTTCTAACCTGTTGCCT (site AAAGGGTCTAG) | 0
TAATGTACTTGGGTTCTAACCTGTTGCCT (site TAATGTACTAG) | 0.556
CTAATTGCTTGGGTTCTAACCTGTTGCAA (site CTACTTGCTTT) | 0.0139
TGGCGAGCTTGGGTTCTAACCTGTTGCCT (site TGGCGAGCTAG) | 1.02
GCTCGTGCTTGGGTTCTAACCTGTTGCCT (site GCGCGTGCTAG) | 0.238
GAGGCTTCTTGGGTTCTAACCTGTTGCCT (site GGGGCTTCTAG) | 0.184
CTCGGATCTTGGGTTCTAACCTGTTGCCA (site CTCGGAGCTCG) | 0.167
ACTCGTCCTTGGGTTCTAACCTGTTGCTA (site ACTCGTCCTTA) | 0.584
AAGCGTTCTTGGGTTCTAACCTGTTGCCT (site AAGCGTCCTAG) | 0.111
AGAGGACCTTGGGTTCTAACCTGTTGCCT (site TGAGCACCTAG) | 0.213
TCCGTCTCTTGGGTTCTAACCTGTTGCCA (site TCCGTCTCTTG) | 0.692
ATATGTACTTGGGTTCTAACCTGTTGCCA (site ATATGTACTTG) | 0.733
CCGGGTTCTTGGGTTCTAACCTGTTGCCT (site CAGGGTTCTAG) | 0.145
TAGAGCTCTTGGGTTCTAACCTGTTGCGT (site TAGAGCTCTAC) | 1.25
GGACCGCCTTGGGTTCTAACCTGTTGCCT (site GGACCGCCTAG) | 0.626
CCTAATACTTGGGTTCTAACCTGTTGCGT (site CCTAATACTAC) | 0.988
AACGCTCCTTGGGTTCTAACCTGTTGCCT (site AGCGCTCCTAG) | 0.833
GTGCGCTCTTGGGTTCTAACCTGTTGCCG (site GTGCGCTCTCG) | 1.49
CGTAGGTCTTGGGTTCTAACCTGTTGCCT (site CTTAGCTCTAG) | 0.0284
TCACAGGCTTGGGTTCTAACCTGTTGCCG (site TCACAGGCTCG) | 0.361
ACAGCTACTTGGGTTCTAACCTGTTGCTT (site ACAGCTACTAA) | 0.699
AGGCGTACTTGGGTTCTAACCTGTTGCCT (site AGTCGTACTAG) | 0.0768

Sequence | recombinant barcode read abundance (log10)
AGATGAGCTTGGGTTCTAACCTGTTGCGG (site AAATGGGCTCC) | 0.0978
CTACCGTCTTGGGTTCTAACCTGTTGCGG (site CTACCGTCTCC) | 1.97
CAACCACCTTGGGTTCTAACCTGTTGCTT (site CAACCACCTAA) | 1.41
TCTGAGTCTTGGGTTCTAACCTGTTGCTG (site TCTGAGTCTCA) | 0.858
GTTTGCTCTTGGGTTCTAACCTGTTGCCT (site GTTTGCTCTAG) | 0.635
CTACGAACTTGGGTTCTAACCTGTTGCTG (site CTACGCACTCA) | 0.167
GACTGGCCTTGGGTTCTAACCTGTTGCAG (site ATGGACACTAC) | 0.0143
CGCTTGTCTTGGGTTCTAACCTGTTGCCG (site CTCTTGTCTTG) | 0.0615
TTCGTTGCTTGGGTTCTAACCTGTTGCCT (site CTCGTTGCTAG) | 0.41
ATAGGGTCTTGGGTTCTAACCTGTTGCCT (site ACAGGGTCTAG) | 1.85
ATCTTGTCTTGGGTTCTAACCTGTTGCGG (site ATCTTGTCTCC) | 1.83
TGTAGTCCTTGGGTTCTAACCTGTTGCAT (site TGTAGTCCTAA) | 0.232
ACTTAGACTTGGGTTCTAACCTGTTGCCG (site ACTTAGACTCG) | 1.29
TATGAGGCTTGGGTTCTAACCTGTTGCCT (site TATGAGGCTAG) | 0.433
TAAATAGCTTGGGTTCTAACCTGTTGCCT (site TAAATAGCTAG) | 0.881
GATCCTACTTGGGTTCTAACCTGTTGCCT (site GTTCCTACTAG) | 0.0681
ACCCTATCTTGGGTTCTAACCTGTTGCTT (site ACTCTGTCTAA) | 0.114
CTCATTCCTTGGGTTCTAACCTGTTGCCT (site CTCATTCCTAT) | 0.0571
GGTCATGCTTGGGTTCTAACCTGTTGCCT (site GGTCATTCTAG) | 0.0304
GTCGTAGCTTGGGTTCTAACCTGTTGCTA (site GTCGAACCTTA) | 0.139
CCGTAAACTTGGGTTCTAACCTGTTGCCT (site CCGTAATCTAG) | 0.0331
CGTACGACTTGGGTTCTAACCTGTTGCAT (site CGTACGACTAT) | 0.215

Sequence | recombinant barcode read abundance (log10)
GAGTATTCTTGGGTTCTAACCTGTTGCCT (site GATTATTCTAG) | 0.123
TTGTACTCTTGGGTTCTAACCTGTTGCTT (site TTGTACTCTAA) | 0.453
GCCAACCCTTGGGTTCTAACCTGTTGCGT (site GCCAACCCTAA) | 0.212
CGTAGGTCTTGGGTTCTAACCTGTTGCCT (site CGTAGGTCTAG) | 0.101
TTCAAAGCTTGGGTTCTAACCTGTTGCCT (site TTCAAATCTAG) | 0.0721
CTACGTCCTTGGGTTCTAACCTGTTGCTG (site CTACGTCCTTA) | 0.0883
CGAGGGGCTTGGGTTCTAACCTGTTGCCT (site CGAGGGCCTAG) | 0.0526
AGGCGTCCTTGGGTTCTAACCTGTTGCCA (site AGGCGTCCTTG) | 0.802
AAGCGCTCTTGGGTTCTAACCTGTTGCTG (site AAGCGCTCTCA) | 2.39
AGACGTACTTGGGTTCTAACCTGTTGCCT (site AGCCGTACTAG) | 0.102
CTCGATACTTGGGTTCTAACCTGTTGCTT (site CTCGCTACTAA) | 0.096
CGTTCTCCTTGGGTTCTAACCTGTTGCCT (site CGTTCTCCTAG) | 0.0201
GGTCGAACTTGGGTTCTAACCTGTTGCCT (site GGTCGAACTAG) | 0.624
GTTTCTACTTGGGTTCTAACCTGTTGCTA (site ATTTCTACTTC) | 0.128
TACCCGACTTGGGTTCTAACCTGTTGCCT (site TACCCGACTAG) | 1.41
GCGCTTACTTGGGTTCTAACCTGTTGCCT (site GTGCTTACTAG) | 0.0591
TCAGGTACTTGGGTTCTAACCTGTTGCCT (site CCAGGTACTAG) | 0.0713
TCGCCTTCTTGGGTTCTAACCTGTTGCCT (site TGGCCTTCTAG) | 0.654
CACACTACTTGGGTTCTAACCTGTTGCTG (site GGTGAGCCTAC) | 0.24
TATGTAGCTTGGGTTCTAACCTGTTGCCC (site TATGTAGCTGG) | 1.36
TATAGGACTTGGGTTCTAACCTGTTGCGT (site TATAGGACTAC) | 2.03
CCAAGGCCTTGGGTTCTAACCTGTTGCCT (site ACAAGGCCTAG) | 0.161

Sequence | recombinant barcode read abundance (log10)
CTATGGACTTGGGTTCTAACCTGTTGCAC (site CTATGGACTAT) | 0.132
TCTCACTCTTGGGTTCTAACCTGTTGCCT (site TCTCACTCTAG) | 1.54
CTCATACCTTGGGTTCTAACCTGTTGCGT (site CTAATACCTAC) | 0.151
TCCGTACCTTGGGTTCTAACCTGTTGCCG (site TCCGTACCTCG) | 0.814
CTCCGGGCTTGGGTTCTAACCTGTTGCAG (site TATACACCTAC) | 0.0879
ACGGCATCTTGGGTTCTAACCTGTTGCCT (site ACGGCATCTAG) | 0.0883
GTCGTAGCTTGGGTTCTAACCTGTTGCTA (site GTCGTAGCTTA) | 0.353
GGAATTCCTTGGGTTCTAACCTGTTGCCT (site GGAATCCCTAG) | 0
CGAATCTCTTGGGTTCTAACCTGTTGCCT (site CGAATCTCTAG) | 0.616
TCGGGAACTTGGGTTCTAACCTGTTGCCT (site TCGGGAACTAG) | 0.34
TCTAATCCTTGGGTTCTAACCTGTTGCAT (site TCTAACCCTAT) | 0.0519
TCGGCCTCTTGGGTTCTAACCTGTTGCTA (site TCGGCCTCTTA) | 0.877
CCTTGGTCTTGGGTTCTAACCTGTTGCCT (site GCTTGGCCTAG) | 0.107
ACCTACGCTTGGGTTCTAACCTGTTGCCT (site ACCTACGCTAG) | 1.01
GGATCCTCTTGGGTTCTAACCTGTTGCAT (site GGCTCCTCTAT) | 0.149
GGATCTACTTGGGTTCTAACCTGTTGCCT (site GGATCTACTAG) | 0.235
CCTTGCTCTTGGGTTCTAACCTGTTGCCT (site CCTTGCTCTAG) | 0.317
CACAGTCCTTGGGTTCTAACCTGTTGCTA (site CACAGTCCTTA) | 0.966
CCTAATCCTTGGGTTCTAACCTGTTGCGT (site CCTAACCCTAC) | 0.295
GCGCTAGCTTGGGTTCTAACCTGTTGCCT (site TCGCTAGCTAG) | 0.111
